How the values were obtained:
[1] = test system: γ-secretase; test: Screening for γ-secretase-modulating activity, Aβ 42 in SKNBE2 cells carrying APP 695-wild type; format: cell-based; settings: for EC50: read-out: WTAPP SKNBE2 Aβ 42 EC50
Method: Screening of the Compounds of the Invention for γ-Secretase-Modulating Activity
Screening was carried out using SKNBE2 cells carrying the APP 695-wild type, grown in DMEM/NUT-mix F12 (HAM) provided by Gibco (cat no. 31330-38) containing 5% Serum/Fe supplemented with 1% non-essential amino acids.
Cells were grown to near confluency.
The screening was performed using the assay as described in Citron et al (1997) Nature Medicine 3: 67.
IC50-Values of Selected Compounds of the Invention on the γ-Secretase Activity.

[2] = test system: Aβ 42; test: In vivo Aβ 42 lowering, mouse; settings: oral dose 30 mg/kg at 4 hr time point
Description: (§1) To determine whether acute administration of an Aβ42 lowering agent would reduce Aβ42 levels in vivo, non-transgenic rodents, e.g. mice or rats can be used. Alternatively, two to three month old Tg2576 mice expressing APP695 containing the “Swedish” variant can be used or a transgenic mouse model developed by Dr. Fred Van Leuven (K. U. Leuven, Belgium) and co-workers, with neuron-specific expression of a clinical mutant of the human amyloid precursor protein [V717I] (Moechars et al., 1999 J. Biol. Chem. 274, 6483). […] Animals of this age have high levels of Aβ in the brain but no detectable Aβ deposition. Mice treated with the Aβ42 lowering agent will be examined and compared to those untreated or treated with vehicle and brain levels of soluble Aβ42 and total Aβ would be quantitated by standard techniques, for example, using ELISA. Treatment periods may vary from hours to days and will be adjusted based on the results of the Aβ42 lowering once a time course of onset of effect can be established.
A typical protocol for measuring Aβ42 lowering in vivo is shown but it is only one of many variations that could be used to optimize the levels of detectable Aβ. For example, aliquots of compounds can be dissolved in DMSO (volume equal to 1/10th of the final formulation volume), vortexed and further diluted (1:10) with a 10% (w/v) hydroxypropyl β cyclodextrin (HBC, Aldrich, Ref No 33,260-7) solution in PBS, where after they are sonicated for 20 seconds.
Aβ42 lowering agents may be administered as a single oral dose given three to four hours before sacrifice and analysis or alternatively could be given over a course of days and the animals sacrificed three to four hours after the final dose is given.
Blood is collected at sacrifice. The blood collection is performed via a heart puncture during anesthesia with a mixture of Ketalar (Ketamin), Rompun (Xylazin 2%) and Atropin (2:1:1) and collected in EDTA treated collection tubes. Blood is centrifuged at 4000 g for 5 minutes at 4° C. and the plasma recovered for analysis. […]

[3] = test system: Aβ 42; test: In vivo Aβ 42 lowering, rat; settings: oral dose 30 mg/kg at 4 hr time point
Description: as §1
A typical protocol for measuring Aβ42 lowering in vivo is shown but it is only one of many variations that could be used to optimize the levels of detectable Aβ. […]

CC(C)CC(C(=O)O)c1cc(Oc2cc(F)cc(C(F)(F)F)c2)cc(-c2ccc(Cl)c(C(F)(F)F)c2)c1 (stereo not drawn) [Compound 21, 4-Methyl-2-[4′-chloro-3′-trifluoromethyl-5-(3-fluoro-5-trifluoromethylphenoxy)-biphenyl-3-yl]-pentanoic acid]
EC50 [1]: 140 nM | Mouse Efficacy % Lowering Aβ 42 [2]: 25%

CC(C)CC(C(=O)O)c1cc(Oc2cc(F)cc(C(F)(F)F)c2)cc(-c2ccc(C(F)(F)F)cc2)c1 (stereo not drawn) [Compound 30, 2-[5-(3-Fluoro-5-trifluoromethyl-phenoxy)-4′-trifluoromethyl-biphenyl-3-yl]-4-methyl-pentanoic acid]
EC50 [1]: 330 nM | Mouse Efficacy % Lowering Aβ 42 [2]: 43%

CC(C)CC(C(=O)O)c1cc(Oc2cccc(C(F)(F)F)c2)cc(-c2cc(C(F)(F)F)cc(C(F)(F)F)c2)c1 (stereo not drawn) [Compound 35, 2-[3′,5′-Bis-trifluoromethyl-5-(3-trifluoromethyl-phenoxy)-biphenyl-3-yl]-4-methyl-pentanoic acid]
WTAPP SKNBE2 Aβ 42 % Inhibition at 3 μM [1]: 90%

CC(C)CC(C(=O)O)c1cc(Oc2cc(F)cc(F)c2)cc(-c2cc(C(F)(F)F)cc(C(F)(F)F)c2)c1 (stereo not drawn) [Compound 36, 2-[5-(3,5-Difluoro-phenoxy)-3′,5′-bis-trifluoromethyl-biphenyl-3-yl]-4-methyl-pentanoic acid]
WTAPP SKNBE2 Aβ 42 % Inhibition at 3 μM [1]: 90%

CC(C)CC(C(=O)O)c1cc(Nc2cc(C(F)(F)F)cc(C(F)(F)F)c2)cc(-c2ccc(Cl)c(C(F)(F)F)c2)c1 (stereo not drawn) [Compound 37, 2-[5-(3,5-Bis-trifluoromethyl-phenylamino)-4′-chloro-3′-trifluoromethyl-biphenyl-3-yl]-4-methyl-pentanoic acid]
EC50 [1]: 460 nM

CC(C)CC(C(=O)O)c1cc(Nc2cc(F)cc(C(F)(F)F)c2)cc(-c2ccc(Cl)c(C(F)(F)F)c2)c1 (stereo not drawn) [Compound 38, 2-[4′-Chloro-5-(3-fluoro-5-trifluoromethyl-phenylamino)-3′-trifluoromethyl-biphenyl-3-yl]-4-methyl-pentanoic acid]
EC50 [1]: 110 nM

CC(C)CC(C(=O)O)c1cc(Nc2cc(C(F)(F)F)ccc2C(F)(F)F)cc(-c2ccc(Cl)c(C(F)(F)F)c2)c1 (stereo not drawn) [Compound 39, 2-[4′-Chloro-5-(2,5-bis-trifluoromethyl-phenylamino)-3′-trifluoromethyl-biphenyl-3-yl]-4-methyl-pentanoic acid]
WTAPP SKNBE2 Aβ 42 % Inhibition at 3 μM [1]: 95%

CC(C)CC(C(=O)O)c1cc(Nc2cc(C(F)(F)F)ccc2C(F)(F)F)cc(-c2cc(F)cc(C(F)(F)F)c2)c1 (stereo not drawn) [Compound 40, 2-[5′-Fluoro-5-(2,5-bis-trifluoromethyl-phenylamino)-3′-trifluoromethyl-biphenyl-3-yl]-4-methyl-pentanoic acid]
EC50 [1]: 330 nM

CC(C)CC(C(=O)O)c1cc(Nc2ccc(F)cc2C(F)(F)F)cc(-c2cc(F)cc(C(F)(F)F)c2)c1 (stereo not drawn) [Compound 41, 2-[5′-Fluoro-5-(4-fluoro-2-trifluoromethyl-phenylamino)-3′-trifluoromethyl-biphenyl-3-yl]-4-methyl-pentanoic acid]
WTAPP SKNBE2 Aβ 42 % Inhibition at 3 μM [1]: 67%

CC(C)CC(C(=O)O)c1cc(Nc2cc(C(F)(F)F)cc(C(F)(F)F)c2)cc(-c2cc(F)cc(C(F)(F)F)c2)c1 (stereo not drawn) [Compound 42, 2-[5′-Fluoro-5-(3,5-bis-trifluoromethyl-phenylamino)-3′-trifluoromethyl-biphenyl-3-yl]-4-methyl-pentanoic acid]
WTAPP SKNBE2 Aβ 42 % Inhibition at 3 μM [1]: 75%

CC(C)CC(C(=O)O)c1cc(Nc2cc(C(F)(F)F)cc(C(F)(F)F)c2)cc(-c2cc(C(F)(F)F)cc(C(F)(F)F)c2)c1 (stereo not drawn) [Compound 43, 2-[5-(3,5-Bis-trifluoromethyl-phenylamino)-3′,5′-bis-trifluoromethyl-biphenyl-3-yl]-4-methyl-pentanoic acid]
WTAPP SKNBE2 Aβ 42 % Inhibition at 3 μM [1]: 89%

CC(C)CC(C(=O)O)c1cc(Nc2cc(C(F)(F)F)ccc2C(F)(F)F)cc(-c2cc(C(F)(F)F)cc(C(F)(F)F)c2)c1 (stereo not drawn) [Compound 44, 2-[5-(2,5-Bis-trifluoromethyl-phenylamino)-3′,5′-bis-trifluoromethyl-biphenyl-3-yl]4-methyl-pentanoic acid]
EC50 [1]: 240 nM

CC(C)CC(C(=O)O)c1cc(Nc2ccc(F)cc2C(F)(F)F)cc(-c2cc(C(F)(F)F)cc(C(F)(F)F)c2)c1 (stereo not drawn) [Compound 45, 2-[5-(4-Fluoro-2-trifluoromethyl-phenylamino)-3′,5′-bis-trifluoromethyl-biphenyl-3-yl]-4-methyl-pentanoic acid]
WTAPP SKNBE2 Aβ 42 % Inhibition at 3 μM [1]: 85%

CC(C)C[C@@H](C(=O)O)c1cc(Nc2cc(C(F)(F)F)ccc2C(F)(F)F)cc(-c2ccc(C(F)(F)F)cc2)c1 [Compound 46, (R)2-[5-(2,5-Bis-trifluoromethyl-phenylamino)-4′-trifluoromethyl-biphenyl-3-yl]-4-methyl-pentanoic acid]
Rat Efficacy % Lowering Aβ 42 [3]: 30% | EC50 [1]: 100 nM | Mouse Efficacy % Lowering Aβ 42 [2]: 18%

— patent publication US7557244B2, “Substituted biphenyl carboxylic acids and derivatives thereof” (Ortho-McNeil Pharmaceutical, Inc., priority 2006, dated 2009)
